Results taken from PubChem BioAssay (NCI).
Several values for one entry are separate records, joined by “and”; a condition that tells them apart may be missing. Equal values may be shown once.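 The compound was tested at five concentrations on cells cultured in 96-well plates, with a 48-hour exposure period. The concentration for 50% growth inhibition is given as GI50. Definition used: TGI = concentration required for complete inhibition of growth.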

Key:
Assay in all cases: inhibition of tumour cell growth, NCI panel, 48 h
BT-549 breast = test system: BT-549 breast
CAKI-1 renal = test system: CAKI-1 renal
EKVX NSCLC = test system: EKVX NSCLC
HOP-62 NSCLC = test system: HOP-62 NSCLC
NCI-H522 lung = test system: NCI-H522 lung
SNB-19 CNS = test system: SNB-19 CNS
MOLT-4 leukemia = test system: MOLT-4 leukemia
SK-MEL-5 melanoma = test system: SK-MEL-5 melanoma
SN12C renal = test system: SN12C renal
SR leukemia = test system: SR leukemia

Row | SMILES | TGI (BT-549 breast) [µM] | TGI (CAKI-1 renal) [µM] | TGI (EKVX NSCLC) [µM] | TGI (HOP-62 NSCLC) [µM] | TGI (NCI-H522 lung) [µM] | TGI (SNB-19 CNS) [µM] | TGI (MOLT-4 leukemia) [µM] | TGI (SK-MEL-5 melanoma) | TGI (SN12C renal) [µM] | GI50 (CAKI-1 renal) [µM] | GI50 (HOP-62 NSCLC) [µM] | GI50 (MOLT-4 leukemia) [µM] | GI50 (NCI-H522 lung) [µM] | GI50 (SN12C renal) [µM] | GI50 (SR leukemia) [µM] | TGI (SR leukemia) [µM] | GI50 (EKVX NSCLC) [µM] | GI50 (SK-MEL-5 melanoma) [µM] | GI50 (SNB-19 CNS) [µM] | GI50 (BT-549 breast) [µM]
1 | Cc1cc(=O)[nH]o1 | > 100 | > 100 | > 100 | > 100 | > 100 | > 100 | – | – | – | – | – | – | – | – | – | – | – | – | – | –
2 | COc1ccc(N=Nc2c(-c3ccccc3)nn(C(=O)CC(=O)Nc3cccc(Cl)c3)c2-c2ccccc2)cc1 | – | > 100 | > 100 | > 100 | > 100 | > 100 | > 100 | > 100 µM | > 100 | – | – | – | – | – | – | – | – | – | – | –
3 | C1C[S][Ge]2([S]CCO1)[S]CCOCC[S]2 | – | > 100 | – | > 100 | > 100 | – | > 100 | – | > 100 | > 100 | > 100 | > 100 | > 100 | > 100 | > 100 | > 100 | – | – | – | –
4 | O=C(c1ccccc1)c1ccc(OCCOc2ccc(Nc3ccccc3)cc2)cc1 | – | > 100 | > 100 | 81.2 | 53.3 | > 100 | > 100 | > 100 µM | > 100 | – | – | – | – | – | – | > 100 | – | – | – | –
5 | C=CC(C=O)C1(O)CCOC(=O)/C1=C\N (stereo not drawn) | – | > 100 | > 100 | > 100 | > 100 | > 100 | > 100 | > 100 µM | > 100 | > 100 | > 100 | > 100 | > 100 | > 100 | 30.7 | > 100 | > 100 | 62.4 | > 100 | –
6 | Cn1c(O)c(C(/C=C/c2ccccc2)=NCCN=C(/C=C/c2ccccc2)c2c(O)n(C)c(=O)n(C)c2=O)c(=O)n(C)c1=O | 29.5 | > 50 | > 50 | > 50 | > 50 | > 50 | > 50 | 29.5 µM | > 50 | 19.9 | 23.4 | 15.8 | 16.8 | 16.5 | – | – | 25.8 | 11.4 | 21.6 | 10.2
7 | CC/C(=C(/CC)c1ccc([O-])cc1)c1ccc([O-])cc1.CC/C(=C(\CC)c1ccc([O-])cc1)c1ccc([O-])cc1.O=C([CH-]C(=O)c1ccccc1)c1ccccc1.O=C([CH-]C(=O)c1ccccc1)c1ccccc1.O=C([CH-]C(=O)c1ccccc1)c1ccccc1.O=C([CH-]C(=O)c1ccccc1)c1ccccc1.[Ti+4].[Ti+4] | – | 58.5 | > 100 | 51.3 | – | 56.2 | > 100 | – | > 100 | 23.5 | 22.5 | 27.7 | – | 47.1 | 58.5 | > 100 | 45.5 | – | 22.6 | –
8 | CCOc1cc2c(cc1O)/C(=N\O)C[C@@H]1[C@@H]2CC[C@]2(C)[C@@H](O)CC[C@@H]12 | 22.5 | – | > 100 | > 100 | – | – | 0.977 | 1.32 µM and 10.2 µM | > 100 | – | – | – | – | 0.059 | – | – | 0.0582 | 0.00618 | 0.00629 | 0.0864
9 | CC(=O)c1cccc(NC(=O)C(=O)C(C2OC(=O)c3ccccc32)[N+](=O)[O-])c1 (stereo not drawn) | – | > 100 | > 100 | > 100 | – | > 100 | > 100 | > 100 µM | > 100 | – | – | – | – | – | – | > 100 | – | – | – | –
10 | O=C(O)Cc1cccc2c1Oc1ccccc1S2 | – | – | > 100 | > 100 | – | > 100 | > 100 | > 100 µM | > 100 | – | – | – | – | – | – | – | – | – | – | –
11 | O=c1cccccc1NCCCCCCNc1cccccc1=O | – | > 100 | > 100 | > 100 | > 100 | > 100 | > 100 | > 100 µM | > 100 | – | – | – | – | – | – | – | – | – | – | –
12 | CCSC1(SCC)CC(Cc2ccc(OC)cc2)N(C=NC(C)(C)C)C1 (stereo not drawn) | – | > 100 | > 100 | > 100 | 31.1 | > 100 | 40.9 | 31.3 µM | 84.4 | – | – | – | – | – | – | 34.2 | – | – | – | –
13 | CCOC(=O)C1=C(C)NC2SC(=O)/C(=C\c3ccccc3O)N2C1c1ccccc1 (stereo not drawn) | 59.8 | > 100 | > 100 | > 100 | 76.3 | > 100 | – | 32.5 µM | 30.5 | 36.8 | 31.4 | – | 26.2 | 16.6 | – | – | 34.1 | 17.2 | 31.5 | 23.3
14 | CC(=O)c1c(C)n(C)c2c1nnc1ccccc12 | > 100 | > 100 | 50.3 | > 100 | > 100 | > 100 | – | > 100 µM | > 100 | – | – | – | – | – | – | – | – | – | – | –
15 | CN[C@@H](C)[C@@H](N)c1ccccc1 | – | > 100 | > 100 | – | > 100 | > 100 | > 100 | > 100 µM | > 100 | – | – | – | – | – | – | – | – | – | – | –
16 | CC(C)(C)CC(C)(C)c1cc2c(O)c(c1)Cc1cc(C(C)(C)CC(C)(C)C)cc(c1O)Cc1cc(C(C)(C)CC(C)(C)C)cc(c1O)Cc1cc(C(C)(C)CC(C)(C)C)cc(c1O)Cc1cc(C(C)(C)CC(C)(C)C)cc(c1O)Cc1cc(C(C)(C)CC(C)(C)C)cc(c1O)C2 | – | – | > 100 | > 100 | > 100 | > 100 | > 100 | > 100 µM | > 100 | – | – | – | – | – | – | – | – | – | – | –
17 | NNC(=S)N/N=C(/C(=O)Nc1cc(Cl)ccc1Cl)C1C(=O)Nc2ccccc2S1=O (stereo not drawn) | – | > 100 | > 100 | > 100 | > 100 | > 100 | > 100 | > 100 µM | > 100 | – | – | – | – | – | – | > 100 | – | – | – | –
18 | COc1c(NC(C)=O)cc(C)cc1NC(C)=O | – | > 100 | > 100 | > 100 | > 100 | – | > 100 | > 100 µM | > 100 | – | – | – | – | – | – | > 100 | – | – | – | –
19 | CCOC(=O)C1=C(O)CSC1=Nc1ccccc1 | – | > 100 | – | > 100 | > 100 | > 100 | > 100 | – | > 100 | – | – | – | – | – | – | > 100 | – | – | – | –
20 | O=C1c2ccccc2C(=O)c2c(NCCNCCO)ccc(O)c21 | – | 11.5 | 14 | 14.5 | 11.8 | 14.2 | 7.49 | 12.7 µM | 12.8 | – | – | – | – | – | – | – | – | – | – | –
21 | Oc1ccc(O)c(-c2cc(-c3ccccc3)nn2-c2ccccc2)c1 | 33.7 | > 100 | 37.7 | 32.3 | > 100 | > 100 | > 100 | > 100 µM | 45 | 30.6 | 16.8 | 60.5 | 31 | 17 | – | – | 16.9 | 30.7 | 23.9 | 13.4
22 | Cc1c(C(=O)C/C(=N/NC(=O)C[n+]2ccccc2)C(=O)Nc2ccccc2)[n+](=O)c2ccccc2n1O | – | > 100 | > 100 | > 100 | > 100 | > 100 | > 100 | > 100 µM | > 100 | – | – | – | – | – | – | > 100 | – | – | – | –
23 | Cn1nnnc1N/N=C/c1ccccc1 | – | > 10 | > 10 | > 10 | > 10 | > 10 | > 10 | > 10 µM | > 10 | – | – | – | – | – | – | > 10 | – | – | – | –
24 | O=C(c1cc2ccccc2o1)N(Cc1ccccc1)c1ccccc1 | – | 55.5 | 78.2 | 71.4 | 33.9 | > 100 | 39.9 | 31.2 µM | 34.7 | – | – | – | – | – | – | 68.4 | – | – | – | –
25 | C[C@]12CCc3nonc3C1CC[C@@H]1C2CC[C@]2(C)NC(=O)CCC12 (stereo partly drawn) | – | > 100 | > 100 | > 100 | > 100 | > 100 | > 100 | > 100 µM | > 100 | – | – | – | – | – | – | – | – | – | – | –
26 | O=C1N(c2ccccc2)C(=O)C2(SC=NN2Cc2ccccc2)N1c1ccccc1 (stereo not drawn) | – | > 100 | > 100 | > 100 | > 100 | > 100 | > 100 | > 100 µM | > 100 | – | – | – | – | – | – | > 100 | – | – | – | –
27 | CC(C)(C)c1[nH]cnc1/C=c1\[nH]c(=O)/c(=C/c2ccccc2)[nH]c1=O | 12.1 | 32.7 | 35.5 | 25.8 | 0.159 | > 100 | 19.7 | 0.137 µM | 69.6 | < 0.01 | < 0.01 | 0.0215 | < 0.01 | < 0.0144 | – | – | 0.0482 | < 0.0133 | < 0.01 | 0.0139
28 | COc1ccc(C(=O)C(C(=O)C(=O)Nc2ccc(Cl)c(Cl)c2)c2ccc(OC)cc2)cc1 (stereo not drawn) | – | > 100 | > 100 | > 100 | – | > 100 | > 100 | > 100 µM | > 100 | – | – | – | – | – | – | – | – | – | – | –
29 | CC1(C)CCc2cc3c(cc2O1)OCC1c2cc4c(cc2OC31)OCO4 (stereo not drawn) | – | > 100 | > 100 | > 100 | > 100 | > 100 | > 100 | > 100 µM | > 100 | – | – | – | – | – | – | > 100 | – | – | – | –
